Experimental data published in patent US12084415B2, “Biomolecule-polymer-pharmaceutical agent conjugates for delivering the pharmaceutical agent” (Massachusetts Institute of Technology, priority 2021, dated 2024).

Test system: BT474 xenograft tumor
Assay: Antitumor efficacy in BT474 xenograft tumor model
Conditions: for tumor volume at day 30: 3 doses
[1] = PROTAC (ARV771) payload, 3 doses once a week

Procedure: The antitumor efficacy was monitored thorough the measurement of tumor volume size.
We used the ABC platform for antibody targeted delivery of PROTAC to tumors for cancer therapy. We chose ARV771 as the payload. We used PROTAC-ABC (ABC_ARV771) to perform in vivo anti-cancer study. The HER2 overexpressed BT474 xenograft mice model was also used for this study. 6 different treatments were performed on mice bearing ˜50 mm^3 volume tumor. 3 doses for treatment were performed once a week.

ado-trastuzumab emtansine [ADC]
tumor volume (one dose injection, comparison with Kadcyla): good anticancer efficiency

Cc1sc2c(c1C)C(c1ccc(Cl)cc1)=N[C@@H](CC(=O)Nc1ccc(OCCOCCOCCOCCNc3cccc4c3C(=O)N(C3CCC(=O)NC3=O)C4=O)cc1)c1nnc(C)n1-2 (some centres unmarked) [ARV825]
tumor volume at day 30 (PROTAC (ARV771) payload): no therapeutic effects
tumor volume [1]: little therapeutic effects

Cc1ncsc1-c1ccc([C@H](C)NC(=O)[C@@H]2C[C@@H](O)CN2C(=O)[C@@H](NC(=O)COCCCOCCNC(=O)C[C@@H]2N=C(c3ccc(Cl)cc3)c3c(sc(C)c3C)-n3c(C)nnc32)C(C)(C)C)cc1 [ARV771]
tumor volume at day 30 (PROTAC (ARV771) payload): no therapeutic effects
tumor volume [1]: little therapeutic effects
